Test results as given in patent publication US20250250538A1, “METHODS FOR MAKING AND USING DIFFERENTIATED NEURAL CELLS” (RESEARCH DEVELOPMENT FOUNDATION, priority 2022, published 2025).

Experiments:
[1] = system: human embryonic stem cell line HS420; experiment: Dopaminergic differentiation of hESC with ALK inhibitors in the 3D-AirLiwell protocol, q-PCR after 2 and 4 weeks; type: cell-based; conditions: HS420, 3D-AirLiwell, q-PCR at 2 and 4 weeks; for activity with respect to general neural differentiation, compared to LDN/SB (dual smad inhibition): exposed from day 0 during one week at 0.2 μM and 0.8 μM; for effect on dopaminergic differentiation, compared to LDN/SB: exposed from day 0 during one week at 0.2 M and 0.8 M
Protocol: FIG. 22. Dopaminergic differentiation adding Alk-I compounds in 3D-Ali protocol. The concentrations of the compounds tested were 0.2 μM and 0.8 μM.
FIG. 23A-D. Quantitative PCR results: Dopaminergic differentiation adding Alk-I compounds in 3D-Ali protocol. Shown are qPCR results at week 2 and week 4 for (A) Ki-67 and Nestin; (B) Pax6 and B3-Tub; (C) Lmx1a and Nurr-1; and (D) Map-2 and TH. The data in FIGS. 23A-D shown in each group of 12 bars represents, from left to right: 1: Control day 0, 2: LDN193189/SB431542, 3: DMSO 0.2 μM, 4: DMSO 0.8 μM, 5: DMH1 0.2 μM, 6: DMH2 0.2 μM, 7: A-8301 0.2 μM, 8: K02288 0.2 μM, 9: DMH1 0.8 μM, 10: DMH2 0.8 μM, 11: A-8301 0.8 μM, 12: K02288 0.8 μM. The 11 bars in the bottom bar graph in FIG. 23D represent data, from left to right, from: 1: Control day 0, 2: LDN193189/SB431542, 3: DMSO 0.2 μM, 4: DMSO 0.8 μM, 5: DMH1 0.2 μM, 6: DMH2 0.2 μM, 7: A-8301 0.2 μM, 8: K02288 0.2 μM, 9: DMH1 0.8 μM, 10: DMH2 0.8 μM, and 11: A-8301 0.8 μM.
For neural differentiation, 2200 human pluripotent stem cells per microwell in supplemented X-VIVO medium were deposited on a substrate material consisting in molded microwells on an insert in air-liquid interface (720 microwells per well). In order to correctly distribute the cells in each microwell, the substrate material is gently shacked and put on a stable support for 15 min. Supplemented X-VIVO medium was added under the insert. Medium from the cell suspension added on the microwells, was then removed by aspiration with a 0.5×16 mm needle and spheroids are just covered by a thin film (10) of residual medium before incubation of the plate at 37° C. for 24 hours.
24 hours after spheroids formation, culture medium under the insert is replaced with fresh medium made by a combination of half X-VIVO and half Neurobasal medium without ROCK inhibitor supplemented with 1% of penicillin/streptomycin, 1% Non-essential amino-acids, 1% B-27 supplement (Thermofisher), L-Glutamin, 0.5 μM of SB431542, 10 μM LDN193189 (dual-SMAD inhibition cocktail), 100 ng/ml of SHH, 2 μM of Purmorphamin and 100 ng/ml FGF-8. Spheroids are then cultured in their individualized microwells in a conventional incubator at 37° C. and 5% C02. At day 3, 3 μM of CHIR99021 was added. The neurobasal medium replaced progressively the X-VIVO medium. At day 8, medium is replaced by Neurobasal medium supplemented with 1% of penicillin/streptomycin, 1% Non-essential amino-acids, 1% B-27 supplement, 3 μM of CHIR99021, 0.5 mM of cAMP, […], […], 5 ng/mL of FGF20, 1 ng/mL of TGF-B3 and 1 μM of Compound E. At day 13 CHIR99021 is removed. NB: for each medium exchange, the half of medium was refreshed, using 0.5 ml per well.
For qRT-PCR, RNA was extracted from dopaminergic neurospheres cultivated in immersion (3D-i) and in air-liquid culture interface (3D-ALi) derived from 3 different cell batches of HS420 cells. The time points for RNA extraction were days: 3, 8, 15, 22, 29, 43, 57. Total RNA isolation was performed using the Qiagen RNeasy kit according to the manufacturer's instructions. RNA concentration was determined by a spectrometer (Thermo Scientific™ NanoDrop 2000) and RNA quality was verified by the 2100 Bioanalyzer (Agilent). Quantitative PCR was performed with Tecan Freedom Evo by using SYBR green fluorescence. cDNA was produced from RNA by using the prime script RT reagent kit (Takara). All primers were diluted at a concentration of […], and a master mix was used (Power SYBR Green Master Mix, Thermo Fisher Scientific). To perform the RNA-sequencing, the same RNA used in qPCR, were used to analyze the gene expression at week 6 (=day 43) of differentiation. […]

[2] = system: dopaminergic neurospheres; experiment: Effects of antioxidants on three-dimensional dopaminergic neuron differentiation (3D-Ali); type: cell-based, human; conditions: 3D-Ali neurospheres cultured with anti-oxidant (FIG. 21B)
Excerpt: FIG. 20. Protocol design with the addition of anti-oxidants. FIG. 21A-B. Effects of DA maturation with the additional of anti-oxidants. […] The inventors also tested the effects of different antioxidants on three-dimensional dopaminergic neuron differentiation. […] Most of the tested anti-oxidants diminish TH expression during dopaminergic neuron differentiation.

[3] = system: dopaminergic neurospheres; experiment: Effect of laminin and hypoxia on dopaminergic maturation of neurospheres; type: cell-based, human; conditions: 2.5% and 10% laminin; normoxia (20% oxygen) or hypoxia (3% oxygen); day 29
Excerpt: FIG. 17. Experimental design and engineering of maturation protocol.
FIG. 18. Effect of hypoxia and laminin on dopaminergic maturation.
To improve the maturation step, 2.5% or 10% of Laminin 511 (Takkara) or Geltrex® (A growth factors reduced extracellular matrix, ThermoFisher) will be added into the cell culture medium to promote neuronal maturation of spheroids starting from day 1 of differentiation to the end and from day 13 to the end. RGD peptides could also be tested to enhance maturation, by adding them to the culture medium similarly to laminin or geltrex.
The inventors tested whether the additional of an extracellular matrix and/or hypoxia could improve the development of mature neurons. 2.5% and 10% laminin and normoxia (20% oxygen) or hypoxia (3% oxygen) was tested (FIG. 17). […] It was further hypothesized that other changes to the cell culture, such as modification of the volume of the cell culture medium could provide for an improvement in the maturation of neurons. […] In AirLiwell (6 well plate), a seeding 1.5 million cells per well (6 well AirLiwell plate) yields 2350 neurospheres.

| Compound | activity with respect to general neural differentiation, compared to LDN/SB (dual smad inhibition) [1] | effect on dopaminergic differentiation, compared to LDN/SB [1] | DA neuron differentiation [2] | effect on maturation of dopaminergic neurons [3] |
| --- | --- | --- | --- | --- |
| Cc1cccc(-c2nn(C(=S)Nc3ccccc3)cc2-c2ccnc3ccccc23)n1 [A-8301, 3-(6-Methyl-2-pyridinyl)-N -phenyl-4-(4-quinolinyl)-1H -pyrazole-1-carbothioamide] | activity comparable to LDN/SB | no major effects |  |  |
| CC(C)Oc1ccc(-c2cnc3c(-c4ccnc5ccccc45)cnn3c2)cc1 [DMH1, 4-[6-[4-(1-Methylethoxy)phenyl]pyrazolo[1,5-a]pyrimidin-3-yl]-quinoline] | activity comparable to LDN/SB | roughly equipotent as compared to LDN/SB |  |  |
| c1ccc2c(-c3cnn4cc(-c5ccc(OCCN6CCOCC6)cc5)cnc34)ccnc2c1 [DMH2, 4-[6-[4-[2-(4-Morpholinyl)ethoxy]phenyl]pyrazolo[1,5-a]pyrimidin-3-yl]quinoline] | activity comparable to LDN/SB | roughly equipotent as compared to LDN/SB |  |  |
| COc1cc(-c2cc(-c3cccc(O)c3)cnc2N)cc(OC)c1OC [K02288] | activity comparable to LDN/SB | no major effects |  |  |
| O=C1O[C@H]([C@@H](O)CO)C(O)=C1O [ascorbic acid] |  |  | marked enhancement |  |
| laminin |  |  |  | did not provide any apparent effect |
